Legend:
BALB/C mice = assay: In vivo imaging of Fluc-mRNA LNP expression in mice; settings: for Total radiation intensity: 5 μg Fluc-mRNA LNP intramuscular, mice
Protocol: The LNP preparation containing 5 μg of cap analog-transcribed Fluc-mRNA was intramuscularly injected into female BALB/C mice aged 4 to 6 weeks and weighing 17 to 19 g. At specific time points after administration (6 hours, 12 hours, 24 hours, 48 hours, 96 hours, and 168 hours), the mice were intraperitoneally injected with fluorescence imaging substrate. The mice were then allowed to move freely for 5 minutes, followed by detection of the total radiation intensity of the protein expressed by LNP-carrying mRNA in the mice using an IVIS Spectrum small-animal in vivo imaging system (corresponding to the amount of protein expression).
In the in vivo imaging experiments in mice, the multiple of the total radiation intensity for each group of mice relative to the m6A group is shown in Table 8 (where the total radiation intensity is represented as the given value×10^8 p/s).

T7 RNA polymerase = T7 RNA polymerase (Escherichia phage T7, UniProt P00573); assay: Capping rate of mRNA transcription initiated by cap analogs (LC-MS); assay type: biochemical; settings: for Capping rate: LC-MS of mRNA 5′ fragment
T7 RNA polymerase, sequence (P00573 whole entry, the tested form may be a part): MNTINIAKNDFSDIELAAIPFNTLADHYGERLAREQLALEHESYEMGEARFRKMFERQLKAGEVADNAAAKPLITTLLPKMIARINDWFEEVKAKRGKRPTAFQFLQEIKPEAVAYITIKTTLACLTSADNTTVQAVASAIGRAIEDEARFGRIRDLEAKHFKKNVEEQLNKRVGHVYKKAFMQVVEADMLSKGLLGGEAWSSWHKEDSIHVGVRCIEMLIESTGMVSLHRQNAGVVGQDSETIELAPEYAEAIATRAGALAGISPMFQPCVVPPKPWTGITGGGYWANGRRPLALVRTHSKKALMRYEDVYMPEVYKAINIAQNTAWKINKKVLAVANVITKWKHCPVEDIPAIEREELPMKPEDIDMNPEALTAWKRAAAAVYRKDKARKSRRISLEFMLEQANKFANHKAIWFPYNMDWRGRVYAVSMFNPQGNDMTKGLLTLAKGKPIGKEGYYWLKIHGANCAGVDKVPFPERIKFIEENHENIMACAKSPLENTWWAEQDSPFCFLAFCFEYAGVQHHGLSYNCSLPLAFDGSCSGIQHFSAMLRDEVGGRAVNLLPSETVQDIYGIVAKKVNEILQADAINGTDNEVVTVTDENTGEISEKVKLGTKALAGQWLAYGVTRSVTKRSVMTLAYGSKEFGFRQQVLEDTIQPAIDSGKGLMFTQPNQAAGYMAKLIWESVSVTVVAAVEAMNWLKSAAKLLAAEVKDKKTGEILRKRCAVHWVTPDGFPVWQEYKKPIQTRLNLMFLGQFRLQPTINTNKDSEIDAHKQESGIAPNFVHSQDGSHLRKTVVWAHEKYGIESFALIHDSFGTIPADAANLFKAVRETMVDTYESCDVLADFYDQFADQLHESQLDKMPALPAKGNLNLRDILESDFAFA
Protocol: During the experiment, the volume of materials required for the system was first calculated, and then sample addition was conducted. The system was first added with sterile enzyme-free water, followed by the sequential addition of 10× buffer, NTPs, and cap analogs, mixed well, and gently centrifuged. Nuclease inhibitors, inorganic pyrophosphatase, T7RNA polymerase, and linearized DNA templates were then added thereto. The system was mixed well, gently centrifuged, and incubated at 37° C. After 2 hours of incubation, the system was added with 1 U of DNase I and incubated at 37° C. for another 30 minutes. The mRNA precipitate was then washed with 75% ethanol, and after the ethanol was briefly evaporated to dryness, the mRNA was redissolved in sterile enzyme-free water. • (3) The transcription product was purified, and the in vitro transcription yield of mRNA was recorded. • (4) The obtained mRNA was subjected to an annealing reaction with a probe.
The annealing reaction was performed in a PCR instrument: 95° C. for 5 minutes; 65° C. for 2 minutes; 55° C. for 2 minutes; 40° C. for 2 minutes; 22° C. for 2 minutes. • (5) Magnetic bead pretreatment and probe binding: 100 μL of magnetic beads was placed on a magnetic frame for pretreatment. The magnetic bead solution was added with 120 μL of sample and incubated at room temperature for 30 minutes with slow mixing. • (6) mRNA splicing and obtaining the mRNA 5′ single-strand sequence bound to the probe
The mixture was added with 20 μL of RNase H (5 U/μL) and incubated at 37° C. for 3 hours with mixing every half hour. After incubation, the magnetic beads were washed and then added with 100 μL of 75% methanol heated to 80° C. The mixture was heated to 80° C. on a heating plate, held for 3 minutes, then placed on a magnetic frame to aspirate the supernatant, and dried at room temperature for 45 minutes to a volume of 10 μL using a centrifugal evaporator. The sample was then resuspended in 50 μL of 100 μM EDTA/1% MeOH and ready for LC-MS analysis to determine the capping of RNA in the transcription reaction. Since there is a significant difference in molecular weight between capped and uncapped bases, the capping rate of mRNA transcription initiated by different cap analogs can be determined based on the difference in molecular mass.

Row | SMILES | Multiple of total radiation intensity relative to m6A (BALB/C mice; 6 h) | Total radiation intensity (BALB/C mice; 6 h) | Multiple of total radiation intensity relative to m6A (BALB/C mice; 12 h) | Total radiation intensity (BALB/C mice; 12 h) | Multiple of total radiation intensity relative to m6A (BALB/C mice; 24 h) | Total radiation intensity (BALB/C mice; 24 h) | Multiple of total radiation intensity relative to m6A (BALB/C mice; 48 h) | Total radiation intensity (BALB/C mice; 48 h) | Multiple of total radiation intensity relative to m6A (BALB/C mice; 96 h) | Total radiation intensity (BALB/C mice; 96 h) | Total radiation intensity (BALB/C mice; 168 h) | Capping rate (T7 RNA polymerase) [%] | Increase relative to 5227 (capping rate) (T7 RNA polymerase) [%]
1 | COC[C@@H]1[C@H](OP(=O)(O)OC[C@H]2O[C@@H](n3cnc4c(=O)[nH]c(N)nc43)[C@H](O)[C@@H]2O)[C@@H](COP(=O)(O)OP(=O)(O)OP(=O)(O)OC[C@H]2O[C@@H]([n+]3cn(C)c4c(=O)[nH]c(N)nc43)[C@H](O)[C@@H]2O)O[C@H]1n1cnc2c(N)ncnc21 [YK-CAP-113] | 2.6 | 6.07 ×108 p/s | 3.6 | 7.63 ×108 p/s | 3.1 | 2.02 ×108 p/s | 2.5 | 1.29 ×108 p/s | 1.2 | 0.31 ×108 p/s | 0.04 ×108 p/s | 95.2 | 32.4
2 | COC[C@]1(COP(=O)(O)OP(=O)(O)OP(=O)(O)OC[C@H]2O[C@@H](n3cnc4c(N)ncnc43)[C@H](OC)[C@@H]2OP(=O)(O)OC[C@H]2O[C@@H](n3cnc4c(=O)[nH]c(N)nc43)[C@H](O)[C@@H]2O)O[C@@H]([n+]2cn(C)c3c(=O)[nH]c(N)nc32)[C@H](O)[C@@H]1O [YK-CAP-117] | 3.8 | 8.99 ×108 p/s | 3.8 | 8.00 ×108 p/s | 3.2 | 2.08 ×108 p/s | 3.3 | 1.73 ×108 p/s | 0.9 | 0.35 ×108 p/s | 0.02 ×108 p/s | 95.1 | 32.3
3 | CO[C@@H]1[C@H](OP(=O)(O)OC[C@H]2O[C@@H](n3cnc4c(=O)[nH]c(N)nc43)[C@H](O)[C@@H]2O)[C@@H](COP(=O)(O)OP(=O)(O)OP(=O)(O)OC[C@@]2(CF)O[C@@H]([n+]3cn(C)c4c(=O)[nH]c(N)nc43)[C@H](O)[C@@H]2O)O[C@H]1n1cnc2c(N)ncnc21 [YK-CAP-118] | 3.0 | 7.06 ×108 p/s | 3.0 | 6.28 ×108 p/s | 3.1 | 2.03 ×108 p/s | 2.6 | 1.33 ×108 p/s | 1.2 | 0.35 ×108 p/s | 0.02 ×108 p/s | 97.2 | 35.2
4 | CO[C@@H]1[C@H](OP(=O)(O)OC[C@H]2O[C@@H](n3cnc4c(=O)[nH]c(N)nc43)[C@H](O)[C@@H]2O)[C@@H](COP(=O)(O)OP(=O)(O)OP(=O)(O)OC[C@@]2(C(F)F)O[C@@H]([n+]3cn(C)c4c(=O)[nH]c(N)nc43)[C@H](O)[C@@H]2O)O[C@H]1n1cnc2c(N)ncnc21 [YK-CAP-119] | 3.2 | 7.47 ×108 p/s | 3.1 | 6.65 ×108 p/s | 3.3 | 2.15 ×108 p/s | 2.4 | 1.26 ×108 p/s | 1.3 | 0.25 ×108 p/s | 0.02 ×108 p/s | 96.3 | 33.9
5 | CO[C@@H]1[C@H](OP(=O)(O)OC[C@H]2O[C@@H](n3cnc4c(=O)[nH]c(N)nc43)[C@H](O)[C@@H]2O)[C@@H](COP(=O)(O)OP(=O)(O)OP(=O)(O)OC[C@@]2(OC)O[C@@H]([n+]3cn(C)c4c(=O)[nH]c(N)nc43)[C@H](O)[C@@H]2O)O[C@H]1n1cnc2c(N)ncnc21 [compound 5227, reference compound] | 1.0 | 2.38 ×108 p/s | 0.7 | 1.45 ×108 p/s | 0.8 | 0.53 ×108 p/s | 0.9 | 0.48 ×108 p/s | 0.9 | 0.07 ×108 p/s | 0.02 ×108 p/s | 71.9 | 0

From patent publication US12576099B2, “Ribose-modified cap analog and use thereof” (Beijing Youcare Kechuang Pharmaceutical Technology Co., Ltd., priority 2024, dated 2026)
